# Test results from paper PMC12655637, “Design, Synthesis, and Mechanistic Study of Novel Ciprofloxacin/Thiazole Chalcone Hybrids as Potential Anticancer Agents” (Pharmaceuticals, 2025).
# pIC50: −log10 of the molar value.
# Key:
# [1] = system: DU-145; assay: NCI-60 screening, one-dose (10 µM) and five-dose, SRB; type: cell-based, human
# [2] = system: LOX IMVI; assay: as above; type: cell-based, human; conditions: five-dose
# [3] = system: NCI-H226; assay: as above; type: cell-based, human
# [4] = system: OVCAR-4; assay: as above; type: cell-based, human
# [5] = system: SW-620; assay: as above; type: cell-based, human
# [6] = system: MALME-3M; assay: as above; type: cell-based, human
# [7] = system: CAKI-1; assay: as above; type: cell-based
# [8] = system: SN12C; assay: as above; type: cell-based, human
# [9] = system: Colon Cancer cell lines; assay: NCI five-dose testing, subpanel (GI50 range, MID b, selectivity)
# Text: The log10 GI50, log10 TGI, and log10 LC50 values were subsequently calculated as the averages of the log10 values of the respective individual GI50, TGI, and LC50 measurements. Negative numbers signified the most sensitive cell lines.
# One way to measure a compound’s selectivity is to divide its subpanel MID^b (in μM) by the MID^a (in μM), which is the average sensitivity of all cell lines to the test agent.
# At the National Cancer Institute (NCI) in Bethesda, USA, researchers examined the anticancer potential of the target compounds under investigation using nine panels of sixty different cell lines obtained from nine different cancers that were housed in the NCI library. […] The anticancer screening was carried out at a single dose of 10^−5 M; the results obtained were expressed as growth inhibition (%).
# The anti-cancer potential of the tested compounds was evaluated at the National cancer institute (NCI), Bethesda, USA, against 9 panels of 60 various cell lines derived from nine human tumours available usually at NCI library. […] The anticancer screening was carried out at single dose of 10^-5 M. The results obtained as growth inhibition (%).
# Cell lines were grown in Roswell Park Memorial Institute medium (RPMI) with 5% fetal bovine serum and 2% μM L-glutamine. Cancer cells are inoculated into 96 well microtiter plates in 100 μL at plating densities ranging from 5000 to 40,000 cells/well depending on the doubling time of individual cell lines. Then microtiter plates are incubated at 37 °C, 5% CO2, 95% air and 100% relative humidity for 24 h prior to the addition of the tested compounds. After 24 h, two plates of each cell line are fixed in situ with trichloroacetic acid (TCA). The tested compounds were dissolved in dimethyl sulfoxide (DMSO) and stored in the freezer prior to use. An aliquot of frozen drug concentrate is diluted to the desired concentration with complete medium containing 50 μg/mL gentamicin.
# compounds were added to the microtiter plates followed by incubation for further 48 h at 37 °C, 5% CO2, 95% air and 100% relative humidity. Fixation of cancer cell lines is carried out through gentle addition of 50 μL of cold 50 %w/v TCA (final concentration, 10% TCA) then incubated for 60 min. at 4 °C. The plates are washed five times with tap water after getting rid of the supernatant and allowed to dry in air. Sulforhodamine B (SRB) solution (100 μL) at 0.4% w/v in 1% acetic
# [10] = system: COLO 205; assay: NCI-60 screening, one-dose (10 µM) and five-dose, SRB; type: cell-based, human
# [11] = system: NCI-H522; assay: as above; type: cell-based, human
# [12] = system: NCI-H460; assay: as above; type: cell-based, human; conditions: five-dose, NCI-H460
# [13] = system: HL-60(TB); assay: as above; type: cell-based, human
# [14] = system: RPMI-8226; assay: as above; type: cell-based, human
# [15] = system: NCI-H322M; assay: as above; type: cell-based, human
# [16] = Homo sapiens, five-dose, DU-145
# [17] = Homo sapiens, read-out: LC50 (the source's name)
# [18] = Homo sapiens, five-dose, NCI-H226
# [19] = Homo sapiens, five-dose, OVCAR-4
# [20] = Homo sapiens, five-dose, SW-620
# [21] = Homo sapiens, five-dose, read-out: LC50 (the source's name)
# [22] = Homo sapiens, five-dose, CAKI-1
# [23] = Homo sapiens, five-dose, COLO 205
# [24] = Homo sapiens, five-dose, NCI-H522
smiles,measurement,setting,value
"Cc1nc(SCC(=O)N2CCN(c3cc4c(cc3F)c(=O)c(C(=O)O)cn4C3CC3)CC2)sc1C(=O)/C=C/c1cccc(F)c1 [Compound 4d, (E)-1-Cyclopropyl-6-fluoro-7-(4-(2-((5-(3-(3-fluorophenyl)acryloyl)-4-methylthiazol-2-yl)thio)acetyl)piperazin-1-yl)-4-oxo-1,4-dihydroquinoline-3-carboxylic Acid]",activity at 10 µM,"[1]; Homo sapiens, 10 μM, DU-145, Prostate Cancer, read-out: Growth percentage",73.7%
same,GI50,[1]; [16],> 100 µM
same,pIC50,[1]; [16],< 4.00
same,CC50,"[1]; Homo sapiens, five-dose, DU-145, read-out: LC50 (the source's name)",> 100 µM
same,TGI,"[1]; five-dose, DU-145",100.0 µM
same,GI50,[2]; Homo sapiens,2.8 µM
same,pIC50,[2]; Homo sapiens,5.39
same,CC50,[2]; [17],> 100 µM
same,TGI,[2],100.0 µM
same,activity at 10 µM,"[3]; Homo sapiens, 10 μM, NCI-H226, Non-Small-Cell Lung Cancer, read-out: Growth percentage",70.9%
same,GI50,[3]; [18],> 100 µM
same,pIC50,[3]; [18],< 4.00
same,LC50 (concentration killing 50% of cells),[3]; [18],> 100 µM
same,TGI,"[3]; five-dose, NCI-H226",100.0 µM
same,activity at 10 µM,"[4]; Homo sapiens, 10 μM, OVCAR-4, Ovarian Cancer, read-out: Growth percentage",94.5%
same,GI50,[4]; [19],> 100 µM
same,pIC50,[4]; [19],< 4.00
same,CC50,"[4]; Homo sapiens, five-dose, OVCAR-4, read-out: LC50 (the source's name)",> 100 µM
same,TGI,"[4]; five-dose, OVCAR-4",100.0 µM
same,activity at 10 µM,"[5]; Homo sapiens, 10 μM, SW-620, Colon Cancer, read-out: Growth percentage",3.2%
same,GI50,[5]; [20],3.7 µM
same,pIC50,[5]; [20],5.33
same,CC50,"[5]; Homo sapiens, five-dose, SW-620, read-out: LC50 (the source's name)",> 100 µM
same,TGI,"[5]; five-dose, SW-620",100.0 µM
same,Growth percentage,"[6]; 10 μM, Melanoma",106.8%
same,GI50,"[6]; Homo sapiens, five-dose",> 100 µM
same,pIC50,"[6]; Homo sapiens, five-dose",< 4.00
same,CC50,[6]; [21],> 100 µM
same,TGI,[6]; five-dose,100.0 µM
same,activity at 10 µM,"[7]; Homo sapiens, 10 μM, CAKI-1, Renal Cancer, read-out: Growth percentage",79.8%
same,GI50,[7]; [22],> 100 µM
same,pIC50,[7]; [22],< 4.00
same,CC50,"[7]; Homo sapiens, five-dose, CAKI-1, read-out: LC50 (the source's name)",> 100 µM
same,TGI,"[7]; five-dose, CAKI-1",100.0 µM
same,activity at 10 µM,"[8]; Homo sapiens, 10 μM, Renal Cancer, read-out: Growth percentage",27.7%
same,GI50,"[8]; Homo sapiens, five-dose",> 100 µM
same,pIC50,"[8]; Homo sapiens, five-dose",< 4.00
same,CC50,[8]; [21],> 100 µM
same,TGI,[8]; five-dose,100.0 µM
same,GI50,[9]; Homo sapiens,0.52 to 4.9 µM
same,SI,"[9]; full-panel MG-MID / subpanel MG-MID, Colon Cancer",2.8
same,MG-MID,[9]; mean activity across subpanel Colon Cancer,25.3 µM
same,activity at 10 µM,"[10]; Homo sapiens, 10 μM, COLO 205, Colon Cancer, read-out: Growth percentage",102%
same,GI50,[10]; [23],4.9 µM
same,pIC50,[10]; [23],5.03
same,CC50,"[10]; Homo sapiens, five-dose, COLO 205, read-out: LC50 (the source's name)",> 100 µM
same,TGI,"[10]; five-dose, COLO 205",19.95 µM
same,activity at 10 µM,"[11]; Homo sapiens, 10 μM, NCI-H522, Non-Small-Cell Lung Cancer, read-out: Growth percentage",88.2%
same,GI50,[11]; [24],> 100 µM
same,pIC50,[11]; [24],< 4.00
same,LC50 (concentration killing 50% of cells),[11]; [24],> 100 µM
same,TGI,"[11]; five-dose, NCI-H522",100.0 µM
same,GI50,[12]; Homo sapiens,> 100 µM
same,pIC50,[12]; Homo sapiens,< 4.00
same,CC50,[12]; [17],> 100 µM
same,TGI,[12],100.0 µM
same,activity at 10 µM,"[13]; Homo sapiens, HL-60, 10 μM, HL-60(TB), Leukemia, read-out: Growth percentage",-99.8%
same,pIC50,"[13]; Homo sapiens, HL-60, five-dose, HL-60(TB)",5.54
same,pIC50,"[13]; Homo sapiens, HL-60, leukemia HL-60",5.43
same,GI50,"[13]; Homo sapiens, five-dose, HL-60(TB)",1.78 µM
same,CC50,"[13]; Homo sapiens, five-dose, HL-60(TB), read-out: LC50 (the source's name)",11 µM
same,TGI,"[13]; five-dose, HL-60(TB)",3.8 µM
same,pIC50,"[14]; Homo sapiens, RPMI-8226, RPMI-8226",6.52
same,pIC50,"[14]; Homo sapiens, RPMI-8226, five-dose, RPMI-8226",6.47
same,GI50,"[14]; Homo sapiens, five-dose, RPMI-8226",0.19 µM
same,CC50,"[14]; Homo sapiens, five-dose, RPMI-8226, read-out: LC50 (the source's name)",0.6 µM
same,TGI,"[14]; five-dose, RPMI-8226",2.63 µM
same,Growth percentage,"[15]; 10 μM, Non-Small-Cell Lung Cancer",95.7%
same,GI50,"[15]; Homo sapiens, five-dose",> 100 µM
same,pIC50,"[15]; Homo sapiens, five-dose",< 4.00
same,LC50,"[15]; Homo sapiens, five-dose",> 100 µM
same,TGI,[15]; five-dose,100.0 µM
